Source: BindingDB's records for patent US20230365530 (The Asean Foundation, 2023)

Target: T1, Histone-lysine N-methyltransferase EHMT2 (Homo sapiens, UniProt Q96KQ7)
T1 sequence (Q96KQ7 whole entry): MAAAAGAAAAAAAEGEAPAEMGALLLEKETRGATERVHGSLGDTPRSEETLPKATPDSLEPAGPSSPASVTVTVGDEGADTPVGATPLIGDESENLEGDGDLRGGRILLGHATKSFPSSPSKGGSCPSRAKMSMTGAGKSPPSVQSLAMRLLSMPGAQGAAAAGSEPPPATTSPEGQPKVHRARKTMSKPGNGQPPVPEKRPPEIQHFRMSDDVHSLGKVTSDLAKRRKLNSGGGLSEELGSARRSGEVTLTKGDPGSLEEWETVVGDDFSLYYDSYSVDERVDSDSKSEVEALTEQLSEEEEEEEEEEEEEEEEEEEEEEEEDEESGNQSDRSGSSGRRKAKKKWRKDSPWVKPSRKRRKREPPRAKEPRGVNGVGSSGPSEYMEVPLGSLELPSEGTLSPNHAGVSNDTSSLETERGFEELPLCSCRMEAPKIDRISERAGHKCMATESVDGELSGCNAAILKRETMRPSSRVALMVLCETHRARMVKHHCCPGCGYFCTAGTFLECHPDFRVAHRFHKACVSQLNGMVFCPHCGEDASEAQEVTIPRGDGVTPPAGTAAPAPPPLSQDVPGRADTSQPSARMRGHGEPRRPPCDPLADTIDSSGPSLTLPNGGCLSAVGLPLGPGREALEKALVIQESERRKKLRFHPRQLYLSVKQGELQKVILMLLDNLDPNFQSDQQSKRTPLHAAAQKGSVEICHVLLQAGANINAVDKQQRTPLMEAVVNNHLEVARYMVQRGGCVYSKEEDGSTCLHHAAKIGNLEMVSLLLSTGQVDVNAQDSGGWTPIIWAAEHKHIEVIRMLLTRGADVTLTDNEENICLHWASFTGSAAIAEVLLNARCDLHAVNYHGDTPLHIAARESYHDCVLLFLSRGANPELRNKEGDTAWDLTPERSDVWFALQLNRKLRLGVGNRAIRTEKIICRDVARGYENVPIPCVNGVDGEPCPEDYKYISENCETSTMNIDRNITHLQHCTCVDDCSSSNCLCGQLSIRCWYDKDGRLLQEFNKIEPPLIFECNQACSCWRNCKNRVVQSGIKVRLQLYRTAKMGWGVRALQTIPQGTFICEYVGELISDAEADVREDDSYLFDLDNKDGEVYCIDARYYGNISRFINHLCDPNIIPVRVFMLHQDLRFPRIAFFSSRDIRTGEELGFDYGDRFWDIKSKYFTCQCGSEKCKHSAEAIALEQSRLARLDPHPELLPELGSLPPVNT
Assay: Enzyme Inhibitory Efficacy Assay
Procedure: Specific experimental methods are as follows. First, the compounds of Examples 1 to 89 of 1 nM to 100 μM (4 conc.) were put into a 384 well plate (25 μL/well), and 2 μM […] enzyme (4 conc.) was put into the 384 well plate (25 μL/well). The plate was then centrifuged at 1,500 rpm for 5 seconds after sealing the plate with plate sealing foil. After incubating the EHMT2/G9a enzyme, SAM, and the compounds of Examples above at room temperature for 10 minutes, 2 μM histone H3 peptide (4 conc.) was added to the 384-well plate (25 μL/well). After sealing the plate with plate sealing foil and centrifuging at 1,500 rpm for 5 seconds, an enzymatic reaction was performed at room temperature for 1 hour. Upon completion of the enzyme reaction, 5 μL each of 200 nM Ulight -Streptavidin (4 conc.) and 8 nM Eu-antibody (4 conc.) was added to each well of the plate. The plate was sealed with plate sealing foil, centrifuged at 1,500 rpm for 5 seconds and reacted at room temperature for 1 hour. The signal values were measured with Envision (Ex 320 nm, Em 665 nm), and all background values obtained by reacting without enzyme were deleted from the measured raw data values.

IC50 [nM]	Compound
< 100	COc1cc2c(NC3CCN(C(C)C)CC3)nc(N3CC(F)(F)C3)nc2cc1C#CCCN1CCCC1 [US20230365530, Example 58]
< 100	COc1cc2c(NC3CCN(C(C)C)CC3)nc(N(C)CC(=O)OC(C)(C)C)nc2cc1C#CCCN1CCCC1 [US20230365530, Example 82]
